# Assays:
# Cytochrome P450 1A1 = target: T1, Cytochrome P450 1A1 (Homo sapiens, UniProt P04798); test: Binding affinity to human CYP1A1; format: ADME
# T1 sequence (P04798 whole entry): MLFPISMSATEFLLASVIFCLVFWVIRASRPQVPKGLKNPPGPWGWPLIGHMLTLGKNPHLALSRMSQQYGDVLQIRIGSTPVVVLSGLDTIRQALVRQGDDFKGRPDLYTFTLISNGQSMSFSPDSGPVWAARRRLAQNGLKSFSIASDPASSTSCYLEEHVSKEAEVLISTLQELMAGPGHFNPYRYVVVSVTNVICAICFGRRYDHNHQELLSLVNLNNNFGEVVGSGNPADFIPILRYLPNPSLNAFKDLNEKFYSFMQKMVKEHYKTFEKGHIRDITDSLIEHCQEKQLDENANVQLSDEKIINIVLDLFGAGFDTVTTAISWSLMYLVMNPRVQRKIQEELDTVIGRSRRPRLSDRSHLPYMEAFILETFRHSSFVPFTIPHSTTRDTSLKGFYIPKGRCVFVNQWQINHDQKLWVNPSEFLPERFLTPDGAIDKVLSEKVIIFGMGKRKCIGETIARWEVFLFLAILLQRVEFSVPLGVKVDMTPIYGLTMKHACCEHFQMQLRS
# Cytochrome P450 2B1 = target: T2, Cytochrome P450 2B1 (Rattus norvegicus, UniProt P00176); test: Binding affinity to rat CYP2B1; format: ADME
# T2 sequence (P00176 whole entry): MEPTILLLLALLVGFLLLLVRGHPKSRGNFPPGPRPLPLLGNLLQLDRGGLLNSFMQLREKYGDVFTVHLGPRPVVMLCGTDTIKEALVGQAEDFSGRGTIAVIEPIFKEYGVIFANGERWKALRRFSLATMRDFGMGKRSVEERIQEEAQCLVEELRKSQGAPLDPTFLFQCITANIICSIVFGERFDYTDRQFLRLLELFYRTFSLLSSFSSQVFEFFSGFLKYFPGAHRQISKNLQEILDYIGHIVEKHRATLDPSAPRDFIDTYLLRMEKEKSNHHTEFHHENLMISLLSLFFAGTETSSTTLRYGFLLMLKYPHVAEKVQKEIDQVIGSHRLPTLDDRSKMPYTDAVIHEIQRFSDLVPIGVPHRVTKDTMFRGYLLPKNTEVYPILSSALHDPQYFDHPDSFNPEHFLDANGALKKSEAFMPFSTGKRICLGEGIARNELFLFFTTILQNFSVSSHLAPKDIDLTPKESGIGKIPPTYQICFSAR
# [1] = Binding affinity to human CYP1A1-heme complex
# [2] = Binding affinity to rat CYP2B1-heme complex
Structure (SMILES),Kd (Cytochrome P450 1A1) [µM],Kd (Cytochrome P450 2B1) [µM],Kd [1] [µM],Kd [2] [µM]
O=C1CCC(=O)N1c1ccc(O)cc1,13.5,24,3.96,1.57
O=C(O)CCC(=O)Nc1ccc(O)cc1,2.25,1.12,0.789,1.77
CC(=O)Nc1ccc(O)cc1 [ACETAMINOPHEN],19.1,–,5.79,6.64

# Source: ChEMBL document CHEMBL1275297, “Homology modeling and molecular dynamics of CYP1A1 and CYP2B1 to explore the metabolism of aryl derivatives by docking and experimental assays” (Eur J Med Chem, 2010)
